Measured values reported in patent US12668568B2, “Adamantanyl-substituted benzamide compounds and their use as P2X7 receptor antagonists” (The University of Sydney, priority 2018, dated 2026).
Where “and” joins values, the source holds several entries; their conditions need not be identical. Identical values can stand only once.

Legend:
[1] = Brain tissue binding, rapid equilibrium dialysis; assay type: in vitro ADME; conditions: rat brain tissue, 4 hours 37° C., read-out: pb (% bound) Brain (converted)
Description: (§1) Determining the extent to which a molecule binds to factors present within plasma and brain is a critical phase of drug development as this determines not only the free unbound fraction available to exert the desired pharmacological actions but also influences dosing, clearance rate and the potential for drug-drug interactions. Binding is measured with the rapid equilibrium dialysis technique using cartridges consisting of two compartments (sample and buffer chamber) separated by a dialysis membrane.
(§2) All compounds are prepared in 100% DMSO to provide 10 mM stock solutions. Sample material is prepared by spiking a known volume of plasma or brain with the stock solution such that the final concentration of compound is 1 μM. This is placed in the sample chamber of the dialysis cartridge. Dialysis buffer is then added to the buffer chamber and the cartridge incubated at 37° C. for 4 hours. Following the incubation the test compound concentrations are determined in the two chambers and the % free or bound component calculated using the equation below:
(§3) [formula] [formula] In Vivo Pharmacokinetic Studies

CYP2C9 = target: T1, CYP2C9 (Homo sapiens, UniProt P11712); test: Cytochrome profiling CYP2C9 (baculosomes); assay type: in vitro ADME; conditions: probe fluorogenic probe substrate (not named), 10 μM substrate
T1 construct: host or cells: insect cells infected with recombinant baculovirus (microsomes)
T1 sequence (P11712 whole entry): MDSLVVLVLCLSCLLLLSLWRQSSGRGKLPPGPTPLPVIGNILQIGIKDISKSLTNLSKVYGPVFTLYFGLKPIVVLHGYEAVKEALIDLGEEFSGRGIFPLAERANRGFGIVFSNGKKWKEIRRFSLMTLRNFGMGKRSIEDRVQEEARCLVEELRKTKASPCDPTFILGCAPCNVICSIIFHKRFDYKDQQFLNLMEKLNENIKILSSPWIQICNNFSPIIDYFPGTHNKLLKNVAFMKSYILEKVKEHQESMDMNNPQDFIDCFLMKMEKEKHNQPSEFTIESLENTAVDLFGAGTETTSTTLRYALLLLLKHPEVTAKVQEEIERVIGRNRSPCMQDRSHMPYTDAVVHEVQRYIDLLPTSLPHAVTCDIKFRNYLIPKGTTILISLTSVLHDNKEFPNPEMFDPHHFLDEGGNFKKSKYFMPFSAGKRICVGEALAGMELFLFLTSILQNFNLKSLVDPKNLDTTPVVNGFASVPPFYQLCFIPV
Excerpt: (§4) Cytochrome P450 (abbreviated CYP, P450 or CYP450) belong to very large and diverse superfamily of haemoproteins which accept both exogenous and endogenous compounds as substrates in enzymatic reactions and play a major role in drug metabolism. Although this class has more than 50 enzymes just 5 of them (CYP1A2, CYP2C9, CYP2C19, CYP2D6 and CYP3A4) are able to metabolise almost 90% of all drugs. Inhibition of these enzymes is one of the major reasons for drug-drug interactions. Consequently, detailed CYP inhibition profiles are a regulatory requirement for all new drugs. Inhibition potencies against the five most relevant CYP isoforms is performed using baculosomes; microsomes prepared from insect cells infected with recombinant baculovirus containing cDNA for a specific human P450 isozyme. The baculosomes are incubated with drug at a concentration of 1 μM in the presence of a probe substrate for 60 minutes at 37° C. The probe is normally metabolised by the baculosomes to produce a fluorescent metabolite. A substrate drug will compete for the isozyme and reduce the metabolism of the probe resulting in a decrease in the fluorescent signal. The percent inhibition due to the presence of the test compound is calculated using the following equation: [formula] • X=fluorescent intensity observed in the presence of test compound • A=fluorescent intensity observed in control • B=fluorescent intensity observed in the presence of the probe control

[2] = Plasma protein binding, rapid equilibrium dialysis; assay type: in vitro ADME; conditions: rat plasma, 4 hours 37° C., read-out: pb (% bound) Plasma (converted)
Description: as §1, §2, §3

[3] = Liver microsome stability; assay type: in vitro ADME; conditions: liver microsomes, rat liver microsome, 37° C., read-out: Liver microsome T1/2 (converted)
Excerpt: Microsomes are vesicles of endoplasmic reticulum isolated from liver homogenate following differential centrifugation. They contain drug metabolising enzymes including the cytochromes P450 (CYP) responsible for a majority of drug metabolism. They also contain the phase II metabolising enzyme responsible for glucuronidation—uridine diphosphate glucuronyltransferase (UDPGT). As they contain many of the drug metabolizing enzymes found in the liver they are useful in vitro models of hepatic clearance. Assays are performed by incubating drugs of interest at a concentration of 1 μM with the microsomes at 37° C. The disappearance of the test compound is monitored at fixed points over a period of 60 minutes and samples analysed using LC-MSMS. The resulting data can be used to determine: • 1. Intrinsic clearance. These values can be used to categorise compounds into bands of high, medium or low clearance. Generally compounds with high clearances are considered to be less favourable as they are likely to be cleared more rapidly in vivo resulting in a short duration of action. • 2. Rank order compounds in order of microsomal stability by calculating half-life. Cytochrome Profiling […]

CYP3A4 = target: T2, CYP3A4 (Homo sapiens, UniProt P08684); test: Cytochrome profiling CYP3A4 (baculosomes); assay type: in vitro ADME; conditions: probe fluorogenic probe substrate (not named), 10 μM substrate
T2 construct: host or cells: insect cells infected with recombinant baculovirus (microsomes)
T2 sequence (P08684 whole entry): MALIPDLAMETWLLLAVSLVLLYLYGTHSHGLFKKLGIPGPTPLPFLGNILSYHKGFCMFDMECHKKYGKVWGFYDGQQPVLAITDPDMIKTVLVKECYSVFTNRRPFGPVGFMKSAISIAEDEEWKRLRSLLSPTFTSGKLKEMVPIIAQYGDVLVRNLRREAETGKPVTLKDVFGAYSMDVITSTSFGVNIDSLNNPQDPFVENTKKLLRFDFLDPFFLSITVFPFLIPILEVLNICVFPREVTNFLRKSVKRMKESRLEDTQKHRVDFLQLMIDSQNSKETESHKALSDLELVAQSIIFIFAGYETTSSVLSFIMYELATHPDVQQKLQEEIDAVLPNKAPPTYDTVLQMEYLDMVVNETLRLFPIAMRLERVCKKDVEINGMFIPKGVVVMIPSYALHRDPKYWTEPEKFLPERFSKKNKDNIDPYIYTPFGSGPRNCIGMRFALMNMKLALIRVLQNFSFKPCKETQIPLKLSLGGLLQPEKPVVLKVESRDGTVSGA
Excerpt: as §4

hP2X7R = target: T3, hP2X7R (Homo sapiens, UniProt Q99572); test: Calcium influx assay in HEK-hP2X7 cells; assay type: cell-based; conditions: HEK cells expressing hP2X7R, BzATP 100 μM; mean ± standard deviation, n >3
T3 sequence (Q99572 1-595): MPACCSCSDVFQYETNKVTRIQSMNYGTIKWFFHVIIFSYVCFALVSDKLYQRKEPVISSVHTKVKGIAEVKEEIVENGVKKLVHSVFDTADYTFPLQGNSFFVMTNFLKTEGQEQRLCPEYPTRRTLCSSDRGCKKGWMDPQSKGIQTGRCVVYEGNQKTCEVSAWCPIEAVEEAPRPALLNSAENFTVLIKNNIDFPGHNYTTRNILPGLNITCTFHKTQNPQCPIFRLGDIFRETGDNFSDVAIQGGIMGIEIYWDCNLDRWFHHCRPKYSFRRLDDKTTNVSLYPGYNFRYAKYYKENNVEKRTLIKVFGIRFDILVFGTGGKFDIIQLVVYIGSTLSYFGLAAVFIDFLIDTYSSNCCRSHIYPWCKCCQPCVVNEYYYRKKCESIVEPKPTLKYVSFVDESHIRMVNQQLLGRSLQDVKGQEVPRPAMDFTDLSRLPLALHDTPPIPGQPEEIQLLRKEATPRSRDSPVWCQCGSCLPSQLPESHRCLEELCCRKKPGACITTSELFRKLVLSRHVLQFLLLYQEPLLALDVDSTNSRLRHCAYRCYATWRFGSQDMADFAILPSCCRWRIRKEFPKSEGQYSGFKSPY
Description: HEK293T cells transfected with cDNA for the human (HEK-hP2X7) or mouse P2X7 (HEK-mP2X7) receptor (a kind gift from Dr […] Stokes and Prof. Jim Wiley) were cultured in DMEM/F12 with 10% FBS and 500 μg/mL G418 (all from Invitrogen). […] HEK-hP2X7 or HEK-mP2X7 cells were harvested using trypsin (0.05%) with EDTA (0.03%). Cells were loaded with Fluo-4 AM (1 μM) in HBSS buffer at 37° C. for 30 min, inverting every 5 mins. […] Fluorescence was then monitored every 5 s for 5 min total monitoring. […] Data were normalized to the peak response seen with BzATP alone and the basal response seen due to injection of vehicle (see FIG. 3).

Compound | fraction unbound at 4 h, 1 μM [1] | inhibition at 60 min, 1 μM (CYP2C9) [%] | fraction unbound at 4 h, 1 μM [2] | half-life at 1 μM [3] [min] | inhibition at 60 min, 1 μM (CYP3A4) [%] | IC50 (hP2X7R)
COc1ccc(Cl)c(C(=O)NCC23CC4(F)CC(F)(CC(F)(C4)C2)C3)c1 [Compound 1, 2-Chloro-N-((3,5,7-trifluoroadamantan-1-yl)methyl)-5-methoxybenzamide] | 0.0549 | 9.26 | 0.105 | 46.8 | 89.9 | 
COc1ccc(Cl)c(C(=O)NCC23CC4CC(F)(CC(F)(C4)C2)C3)c1 [Compound 2, 2-Chloro-N-((3,5-difluoroadamantan-1-yl)methyl)-5-methoxybenzamide] | 0.085 | -3 | 0.115 | 18 | 89.9 | 10 ± 4 nM
COc1ccc(Cl)c(C(=O)NCC23CC4CC(CC(F)(C4)C2)C3)c1 [Compound 3, 2-Chloro-N-((3-fluoroadamantan-1-yl)methyl)-5-methoxybenzamide] | 0.0309 | 32.3 | 0.0597 | 4.8 | 88.8 | 17.4 ± 2.9 nM
COc1ccc(Cl)c(C(=O)NCC23CC4CC(CC(C4)C2)C3)c1 [Compound 31, reference compound] | 0.0027 | 75 | 0.0079 | 7.8 | 84.4 | 26 nM and 25.7 nM
